This is an account of results in US6699846B2, “Mono- and disaccharides for the treatment of nitric oxide related disorders” (Corixa Corporation, priority 2000, dated 2004).

Series [1] concerns human myelomonocytic cell line THP-1. Kind of series: proinflammatory cytokine elaboration from THP-1 cells. The settings on record: for cytokine induction / cytokine stimulation: TNF-α, IL-1β, class symbols; for cytokine stimulation: second table. In kind it is cell-based. The procedure: The human myelomonocytic cell line THP-1 (ATCC) was used to evaluate the ability of glycolipids to induce proinflammatory cytokines. Glycolipids were added to cell suspensions of THP-1 as aqueous solutions containing 10% ethanol in water for injection. Prior to the 4 hr inductions, THP-1 cells are pre-incubated overnight with 10^−7 M vitamin D3, washed three times and replated in the presence of MPL®, LPS or the synthetic compounds. After 4 hr coincubating of cells with glycolipids, media containing drug is removed, cells resuspended in fresh media and allowed to rest for 20 hr.

The nature of series [2]: USP rabbit pyrogen test. In kind it is in vivo. The settings on record: for pyrogenicity: 2.5 μg dose, class symbols. From the text:
(§1) In clinical trials with monophosphoryl lipid A, fever was generally the first observed side effect. In clinical studies of various formulations of monophosphoryl lipid A administered intravenously, moderate fever, flu-like symptoms and alterations in blood pressure seem to be side effects that establish maximally tolerated doses. Minimum pyrogenic monophosphoryl lipid A doses, adjusted for body weight, as determined in the USP rabbit pyrogen test agree well with results observed in humans. […] In contrast, monophosphoryl lipid A becomes pyrogenic at intravenous doses of approximately 15 μg/kg (temperature increase of about 0.5° C.).

The test system of series [3] is iNOS induction in J774 murine macrophages. Put plainly: iNOS induction (nitrite release, Greiss reagent) in IFN-γ primed J774 cells. The settings on record: for iNOS: second table, class symbols. In kind it is cell-based. The procedure:
The murine macrophage cell line J774 can be primed by IFN-γ in vitro and is very responsive to subsequent LPS stimulation of iNOS upregulation as measured by a standard Greiss reagent ELISA assay procedure. The assay utilizes J774 cells seeded at 1×10^6/mL with 30 mL/flask and with IFN-γ added at 100 units/mL for 16-24 hrs. Cells are then harvested and washed and resuspended at 2×10^5/well in a 96-well plate and allowed to adhere. Glycolipid compounds are serially diluted into the wells for a test group and the resulting cultures are incubated for another 36-40 hrs before culture supernatants are collected from Greiss reagent analysis of nitrite release. Nitrite content closely parallels iNOS function.
Potency was determined as the concentration (ng/mL) of glycolipid in culture capable of inducing one-half maximal induction of nitrite (ED50). The lower the ED50 number, the greater the potency for iNOS induction.

For series [4], the system named is cardiac ischemia. The note with it: dogs. From the text:
Free-radicals produced during reperfusion promote cell death. Free-radical damage to cells results in calcium overload and a decrease in activity of a variety of enzyme systems including, presumably, nitric oxide synthase causing a decrease in nitric oxide production leading to increases in neutrophil adhesion.

In series [5] the test system is pig infarct (LAD occlusion). Kind of series: pig infarct study (LAD occlusion), acute cardioprotection. In kind it is in vivo. On the procedure: A total of 35 pigs were enrolled in the study: 8 in group 1; 10 in group 2; 7 in group 3, 7 in group 4; and 3 in group 5. When the data were analyzed, infarct size results from the two L-NAME control groups (1 and 3) were combined.

Series [6] concerns cardiac ischemia. The settings on record: rabbits, treated about 24 h before cardiac ischemia.
In series [7] the test system is ischemic tissues. The note with it: infusion immediately following bolus dosing.
A short description of series [8]: body temperature in dogs. In kind it is in vivo, dog.
Description: as §1

The nature of series [9]: body temperature in rats. In kind it is in vivo, rat.
Where [10] appears, read: THP-1 cells, not elicited up to this concentration.

Like-named read-outs stand apart in the source and are kept apart here.

With `CCCCCCCCCCCCCCCC(=O)OC(CCCCCCCCCCC)CC(=O)NC1C(O)OC(COC2OC(CO)C(OP(=O)(O)O)C(OC(=O)CC(CCCCCCCCCCC)OC(=O)CCCCCCCCCCCCC)C2NC(=O)CC(CCCCCCCCCCC)OC(=O)CCCCCCCCCCCCC)C(O)C1O` (centres unmarked) [Compound 5.20], the cytokine induction result in series [1] is “++ (++, observable @ 1 μg/mL)”. Further, the pyrogenicity result in [2] is listed as “− (−<1° C.)”.

Take `CCCCCCCCCCCC(CC(=O)N[C@H]1[C@H](OC[C@H](NC(=O)CC(CCCCCCCCCCC)OC(=O)CCCCCC)C(=O)O)O[C@H](CO)[C@@H](OP(=O)(O)O)[C@@H]1OC(=O)CC(CCCCCCCCCCC)OC(=O)CCCCCC)OC(=O)CCCCCC` (some centres unmarked) [Compound 5.54]: the cytokine stimulation result in series [1] was “− (−, not observable at 10 μg/mL)”. Also, the pyrogenicity entry in [2] (second table) is reported as “++ (++>2° C.)”. For the same compound, in [3], the iNOS entry was “− (−>200)”.

`CCCCCCCCCCCC(CC(=O)N[C@H]1[C@H](OC[C@H](NC(=O)CC(CCCCCCCCCCC)OC(=O)CCCCC)C(=O)O)O[C@H](CO)[C@@H](OP(=O)(O)O)[C@@H]1OC(=O)CC(CCCCCCCCCCC)OC(=O)CCCCC)OC(=O)CCCCCCCCC` (some centres unmarked) [Compound 5.68]: in [1], the cytokine stimulation result was “− (−, not observable at 10 μg/mL)”. The pyrogenicity entry in series [2] (second table) is recorded as “++ (++>2° C.)”. Moreover, the iNOS entry in series [3] is on record as “− (−>200)”.

Consider `CCCCCCCCCCC[C@H](CC(=O)N[C@H]1[C@H](OC[C@H](NC(=O)C[C@@H](CCCCCCCCCCC)OC(=O)CCCCC)C(N)=O)O[C@H](CO)[C@@H](OP(=O)(O)O)[C@@H]1OC(=O)C[C@@H](CCCCCCCCCCC)OC(=O)CCCCC)OC(=O)CCCCC` [Compound 5.21], for which, in series [1], the cytokine induction entry is on record as “− (−, not observable at 10 μg/mL)”. The pyrogenicity result in series [2] was “− (−<1° C.)”.

Turning to `CCCCCCCCCCCCCC(=O)O[C@H](CCCCCCCCCCC)CC(=O)NCCO[C@@H]1O[C@H](CO)[C@@H](OP(=O)(O)O)[C@H](OC(=O)C[C@@H](CCCCCCCCCCC)OC(=O)CCCCCCCCCCCCC)[C@H]1NC(=O)C[C@@H](CCCCCCCCCCC)OC(=O)CCCCCCCCCCCCC` [Compound 5.29], the cytokine induction result in series [1] was “++ (++, observable @ 1 μg/mL)”. For the same compound, the pyrogenicity entry in series [2] is “− (−<1° C.)”.

As to `CCCCCCCCCCCC(CC(=O)NC1C(O)OC(COC2OC(CO)C(OP(=O)(O)O)C(OC(=O)CC(CCCCCCCCCCC)OC(=O)CCCCC)C2NC(=O)CC(CCCCCCCCCCC)OC(=O)CCCCC)C(O)C1O)OC(=O)CCCCC` (centres unmarked) [Compound 5.31], the cytokine induction entry in [1] was “− (−, not observable at 10 μg/mL)”. Also, in series [2], the pyrogenicity result is recorded as “− (−<1° C.)”.

As for `CCCCCCCCCCCC(CC(=O)N[C@H]1[C@H](OC[C@H](NC(=O)CC(CCCCCCCCCCC)OC(=O)CCCCC)C(=O)O)O[C@H](CO)[C@@H](OP(=O)(O)O)[C@@H]1OC(=O)CC(CCCCCCCCCCC)OC(=O)CCCCC)OC(=O)CCCCC` (some centres unmarked) [Compound 5.26], in [1], the cytokine stimulation result is “− (−, not observable at 10 μg/mL)”. Moreover, in [2] (second table), the pyrogenicity result is “++ (++>2° C.)”. Moreover, the iNOS result in series [3] is reported as “− (−>200)”.

For the compound `CCCCCCCCCCCC(CC(=O)N[C@H]1[C@H](OC[C@H](NC(=O)CC(CCCCCCCCCCC)OC(=O)CCCCCCCCC)C(=O)O)O[C@H](CO)[C@@H](OP(=O)(O)O)[C@@H]1OC(=O)CC(CCCCCCCCCCC)OC(=O)CCCCC)OC(=O)CCCCC` (some centres unmarked) [Compound 5.67], the cytokine stimulation result in series [1] was “− (−, not observable at 10 μg/mL)”. The pyrogenicity entry in series [2] (second table) is “++ (++>2° C.)”. Moreover, in series [3], the iNOS result is on record as “− (−>200)”.

For the compound `CCCCCCCCCCC[C@H](CC(=O)NCCO[C@@H]1O[C@H](CO)[C@@H](OP(=O)(O)O)[C@H](OC(=O)C[C@@H](CCCCCCCCCCC)OC(=O)CCCCC)[C@H]1NC(=O)C[C@@H](CCCCCCCCCCC)OC(=O)CCCCC)OC(=O)CCCCC` [Compound 5.23], the cytokine induction result in series [1] is listed as “− (−, not observable at 10 μg/mL)”. The pyrogenicity entry in series [2] is reported as “− (−<1° C.)”.

As to `CCCCCCCCCCCC(CC(=O)NC1C(O)OC(COC2OC(CO)C(OP(=O)(O)O)C(OC(=O)CC(CCCCCCCCCCC)OC(C)=O)C2NC(=O)CC(CCCCCCCCCCC)OC(C)=O)C(O)C1O)OC(C)=O` (centres unmarked) [Compound 5.18], the cytokine induction result in [1] was “− (−, not observable at 10 μg/mL)”. Further, the pyrogenicity result in series [2] is “+ (+, from 1-2° C.)”.

Regarding `CCCCCCCCCCCCCC(=O)O[C@H](CCCCCCCCCCC)CC(=O)NCCCO[C@@H]1O[C@H](CO)[C@@H](OP(=O)(O)O)[C@H](OC(=O)C[C@@H](CCCCCCCCCCC)OC(=O)CCCCCCCCCCCCC)[C@H]1NC(=O)C[C@@H](CCCCCCCCCCC)OC(=O)CCCCCCCCCCCCC` [Compound 5.25], the cytokine induction result in [1] is reported as “++ (++, observable @ 1 μg/mL)”. The pyrogenicity result in [2] is listed as “− (−<1° C.)”.

As for `CCCCCCCCCCCC(CC(=O)NC1C(O)OC(COC2OC(CO)C(OP(=O)(O)O)C(OC(=O)CC(CCCCCCCCCCC)OC(=O)CCC)C2NC(=O)CC(CCCCCCCCCCC)OC(=O)CCC)C(O)C1O)OC(=O)CCC` (centres unmarked) [Compound 5.32], in series [1], the cytokine induction result is “− (−, not observable at 10 μg/mL)”. For the same compound, the pyrogenicity result in series [2] was “++ (++>2° C.)”.

Turning to `CCCCCCCCCCCCCCCCCC(=O)OC(CCCCCCCCCCC)CC(=O)NC1C(OCC2OC(O)C(NC(=O)CC(CCCCCCCCCCC)OC(=O)CCCCCCCCCCCCCCC)C(O)C2O)OC(CO)C(OP(=O)(O)O)C1OC(=O)CC(CCCCCCCCCCC)OC(=O)CCCCCCCCCCCCC` (centres unmarked) [RC-552], in series [4], the “delayed cardioprotective effect after NOS inhibitor (aminoguanidine or L-NAME)” value is “blocked”. For the same compound, the delayed protection result in series [4] (treated about 24 h before cardiac ischemia) was “reduced infarct size and stunning”; in series [6] it was “reduced infarct size and stunning”. In addition, the mean infarct size in [5] (pigs, 29 μg/kg i.v. bolus 10 minutes prior to ischemia (LAD occlusion), vehicle 28.9±5.0%) was 14.2±3.0%. Further, in [5] (pigs, 0.5 mg/kg L-NAME 30 minutes prior to 29 μg/kg RC-552), the “mean infarct size, L-NAME before RC-552” value came to 40.2±4.4%. Moreover, the “reduction of infarct size vs vehicle pretreated pigs” value in [5] (treated 10 minutes prior to ischemia) is recorded as 50%. For the same compound, the “concentration inducing IL-1B secretion” value in [1] (THP-1 cells, 4 hr induction) was > 10,000 ng/mL. Also, the “concentration inducing IL-8 elaboration” value in series [1] (THP-1 cells, 4 hr induction) is > 10,000 ng/mL. For the same compound, the “concentration eliciting IL-1” value in series [1] (setting [10]) was > 10,000 μg/mL. Further, in [1] (setting [10]), the “concentration eliciting IL-8” value is given as > 10,000 μg/mL. The “concentration inducing TNF secretion” value in series [1] (THP-1 cells, not induced up to this concentration) was > 10,000 μg/mL. Further, in series [1], the cytokine induction result is reported as “− (−, not observable at 10 μg/mL)”. Besides, the “duration of extended acute protective effect” value in series [7] is given as “at least 3 h”. For the same compound, the “intravenous dose without detectable increase in temperature” value in [8] and in series [9] was over 3 mg/kg throughout. The pyrogenicity result in series [2] is on record as “− (−<1° C.)”. In series [2] (rabbits, i.v. doses up to at least 1,000 μg/kg, 10% ethanol in USP WFI), the average temperature increase entry is “less than 0.35 °C”. Further, the “maximal iNOS activity / nitrite elaboration” value in series [3] (J774, IFN-γ primed) is on record as “very low maximal iNOS activity”.

Turning to `COC(=O)[C@@H](N)CCCNC(=N)N[N+](=O)[O-]` [L-NAME, Nω-nitro-L-arginine methyl ester, reference compound], the “mean infarct size, L-NAME controls” value in series [5] (pigs, combined group of L-NAME alone and L-NAME+vehicle, 0.5 mg/kg) turned out to be 36.9±3.7%.

For the compound `CCCCCCCCCCCC(CC(=O)N[C@H]1[C@H](OC[C@H](NC(=O)CC(CCCCCCCCCCC)OC(=O)CCCCCCCCC)C(=O)O)O[C@H](CO)[C@@H](OP(=O)(O)O)[C@@H]1OC(=O)CC(CCCCCCCCCCC)OC(=O)CCCCC)OC(=O)CCCCCCCCC` (some centres unmarked) [Compound 5.66], the cytokine stimulation result in [1] is on record as “− (−, not observable at 10 μg/mL)”. In addition, the pyrogenicity result in series [2] (second table) was “++ (++>2° C.)”. The iNOS result in series [3] is on record as “++ (++<80)”.
